Test results as given in PMC11855207, “Synthesis and Evaluation of Aromatic A-Ring 23-Oxavitamin D3 Analogues as Hedgehog Pathway Inhibitors” (International Journal of Molecular Sciences, 2025).

System: Hh signaling pathway (Gli1 mRNA) in C3H10T1/2 cells
Test: Gli1 mRNA down-regulation (qPCR) in OHC-stimulated C3H10T1/2 cells
Type: cell-based, mouse
Conditions: Mus musculus, C3H 10T1/2, 5 μM with OHCs 5 μM, 24 h, relative Gli1 mRNA levels compared to OHCs (set to 100%)
Protocol: (§1) The VD3 analogues were initially assessed for their ability to inhibit the Hh signaling pathway by evaluating the effects on endogenous Gli1 mRNA levels at a single concentration (5 μM) co-administration of oxysterols (OHCs; 20(S)-hydroxycholesterol, 22(S)-hydroxycholesterol at 5 μM each) in C3H10T1/2 cells, an Hh-dependent mouse embryonic fibroblast (MEF) cell line. […] VD3 derivatives may retain some VDR agonistic activity, thereby compromising the selectivity of these compounds as Hh inhibitors. The selectivity profile of the analogues for Hh inhibition, compared to typical VDR activation, was assessed by measuring the ability to up-regulate Cyp24a1 mRNA levels in the same cellular system and by evaluating their binding to VDR using a fluorescence polarization-based competition assay (Table 1).
(§2) Mouse embryonic fibroblast cell line (C3H10T1/2, wild-type, VDR^−/−, SuFu^−/−), mouse keratinocyte cell line (ASZ001), and human embryonic kidney cell line (HEK293T) were purchased from China Center for Type Culture Collection (CCTCC; Wuhan, Hubei, China) and cultured under standard protocols. […] Therefore, they can be used to assess the inhibitory strength of the Hh signaling and the selectivity of the VDR signaling. VDR^−/− and SuFu^−/− C3H10T1/2 cells were used to study compounds selectivity for Hh and VDR signaling. If compounds regulate Hh signaling independently of VDR, their ability to down-regulate Gli1 mRNA expression should be abolished in SuFu^−/− C3H10T1/2 cells. […] The loss of Ptch in ASZ001 cells […], so down-regulating Gli1 reflects direct Smo inhibition by the compound. Comparing results from ASZ001 and C3H10T1/2 cells highlights the compound’s inhibition of the Hh signaling pathway.
(§3) RNA isolation in C3H10T1/2 cells was performed in 24-well plates (50,000 cells plated; TRIZOL Reagent); in ASZ001, cells were done in 35 mm dishes (300,000 cells plated; TRIZOL Reagent). cDNA synthesis was performed utilizing the SweScript All-in-One RT SuperMix Kit (Servicebio, Wuhan, China) per the manufacturer’s instructions on a BioRad S1000 Thermal Cycler (Hercules, CA, USA). qPCR (Hh signaling pathway and VDR) analysis of target genes was performed on Step OnePlus (ABI) using the Taqman Gene Expression Assays: mouse ActB (Mm00607939_s1), mouse GLI1 (Mm00494645_ml), mouse PTCH1(Mm00436026_m1), and mouse CYP24A1 (Mm00487244_ml). Relative gene expression levels were computed via the ΔΔCt method. ActinB mRNA expression levels of all samples were normalized to DMSO control ActinB mRNA levels (vehicle; set at 1.00). […] The mRNA expression levels from drug-treated samples were compared to OHCs levels (Gli1, PTCH) and DMSO control (Cyp24A1).

Row | Structure (SMILES) | mrna remaining at 5 µM [%]
1 | CC(C)COC[C@@H](C)[C@H]1CC[C@H]2[C@@H](OC(=O)c3cccc(O)c3)CCC[C@]12C [Compound 3i] | 6.1 ± 1.1
2 | CC(C)COC[C@@H](C)[C@H]1CC[C@H]2[C@@H](OC(=O)c3ccc(O)cc3)CCC[C@]12C [Compound 3k] | 7.3 ± 1.9
3 | C[C@H](COCC(C)(C)O)[C@H]1CC[C@H]2[C@@H](OC(=O)c3ccccc3)CCC[C@]12C [Compound 4a] | 43.8 ± 3.6
4 | C[C@H](COCC(C)(C)O)[C@H]1CC[C@H]2[C@@H](OC(=O)c3ccc([N+](=O)[O-])cc3)CCC[C@]12C [Compound 4b] | 54.6 ± 3.8
5 | COc1ccc(C(=O)O[C@H]2CCC[C@]3(C)[C@@H]([C@H](C)COCC(C)(C)O)CC[C@@H]23)cc1 [Compound 4c] | 76.5 ± 7.5

Same assay, conditions: Mus musculus, C3H 10T1/2, mean ± SEM

Row | Structure (SMILES) | IC50 [µM]
6 | CC(C)COC[C@@H](C)[C@H]1CC[C@H]2[C@@H](OC(=O)c3cccc(O)c3)CCC[C@]12C [Compound 3i] | 2.3 ± 0.7
7 | CC(C)COC[C@@H](C)[C@H]1CC[C@H]2[C@@H](OC(=O)c3ccc(O)cc3)CCC[C@]12C [Compound 3k] | 3.8 ± 0.4

System: VDR signaling (Cyp24A1 mRNA) in C3H10T1/2 cells
Test: Cyp24A1 mRNA up-regulation (qPCR) in C3H10T1/2 cells
Type: cell-based, mouse
Conditions: Mus musculus, C3H 10T1/2, 5 μM with OHCs 5 μM, 24 h, relative to DMSO (set to 1.0)
Protocol: as §1, §2, §3

Row | Structure (SMILES) | fold induction at 5 µM
8 | CC(C)COC[C@@H](C)[C@H]1CC[C@H]2[C@@H](OC(=O)c3cccc(O)c3)CCC[C@]12C [Compound 3i] | 13.8 ± 1.4
9 | CC(C)COC[C@@H](C)[C@H]1CC[C@H]2[C@@H](OC(=O)c3ccc(O)cc3)CCC[C@]12C [Compound 3k] | 32.1 ± 3.2
10 | C[C@H](COCC(C)(C)O)[C@H]1CC[C@H]2[C@@H](OC(=O)c3ccccc3)CCC[C@]12C [Compound 4a] | 94.6 ± 12.7
11 | C[C@H](COCC(C)(C)O)[C@H]1CC[C@H]2[C@@H](OC(=O)c3ccc([N+](=O)[O-])cc3)CCC[C@]12C [Compound 4b] | 92.7 ± 15.9
12 | COc1ccc(C(=O)O[C@H]2CCC[C@]3(C)[C@@H]([C@H](C)COCC(C)(C)O)CC[C@@H]23)cc1 [Compound 4c] | 120 ± 18.6

System: primary Ptch-CKO MB cells
Test: Anti-proliferation (MTS) in primary Ptch-CKO MB cells
Type: cell-based
Conditions: Mus musculus, 48 h incubation, mean ± SEM
Protocol: Ptch-CKO MB cells, derived from a conditional Patched knockout mouse, lack Ptch-like ASZ001 cells. Consequently, the inhibitory effect of the compound on Ptch-CKO MB cells directly reflects its suppression of the canonical Hh signaling pathway. Cell viability was assessed by MTS proliferation assay kit (Promega, Madison, WI, USA) according to the manufacturer’s protocol. Culture conditions and experimental protocols to determine GI50 values in the primary murine Ptch-CKO MB cells were as previously described.

Row | Structure (SMILES) | GI50 [µM]
13 | CC(C)COC[C@@H](C)[C@H]1CC[C@H]2[C@@H](OC(=O)c3cccc(O)c3)CCC[C@]12C [Compound 3i] | 8.1 ± 1.1
14 | CC(C)COC[C@@H](C)[C@H]1CC[C@H]2[C@@H](OC(=O)c3ccc(O)cc3)CCC[C@]12C [Compound 3k] | > 10

Biological target: T1, recombinant VDR (Homo sapiens, UniProt P11473)
T1 construct: purchased Thermo Fisher Scientific
T1 sequence (P11473 1-427): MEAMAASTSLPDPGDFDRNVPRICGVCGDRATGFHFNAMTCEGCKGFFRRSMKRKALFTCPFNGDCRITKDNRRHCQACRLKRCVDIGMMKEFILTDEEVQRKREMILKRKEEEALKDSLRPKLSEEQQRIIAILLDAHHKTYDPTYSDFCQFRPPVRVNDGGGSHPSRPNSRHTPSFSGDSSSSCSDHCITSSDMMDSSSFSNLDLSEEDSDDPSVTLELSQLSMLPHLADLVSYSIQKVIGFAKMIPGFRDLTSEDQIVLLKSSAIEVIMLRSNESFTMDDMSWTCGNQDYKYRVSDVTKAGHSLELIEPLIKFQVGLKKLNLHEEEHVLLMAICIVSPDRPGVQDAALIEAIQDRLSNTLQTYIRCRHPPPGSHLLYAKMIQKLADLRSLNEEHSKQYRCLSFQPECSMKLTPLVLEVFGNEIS
Test: VDR binding, fluorescence polarization-based competition assay (PolarScreen VDR Competitor Assay Red)
Conditions: compounds evaluated at 100 μM
Protocol: as §1
VDR binding assay was performed using a PolarScreen VDR Competitor Assay Red kit (Thermo Fisher Scientific, Carlsbad, CA, USA) per the manufacturer’s instructions. Compounds were evaluated at 100 μM in 2.5% final DMSO in triplicate. Calcitriol is utilized as a positive control for VDR binding.

Row | Structure (SMILES) | VDR Binding [µM]
15 | CC(C)COC[C@@H](C)[C@H]1CC[C@H]2[C@@H](OC(=O)c3cccc(O)c3)CCC[C@]12C [Compound 3i] | >100
16 | CC(C)COC[C@@H](C)[C@H]1CC[C@H]2[C@@H](OC(=O)c3ccc(O)cc3)CCC[C@]12C [Compound 3k] | >100
17 | C[C@H](COCC(C)(C)O)[C@H]1CC[C@H]2[C@@H](OC(=O)c3ccccc3)CCC[C@]12C [Compound 4a] | >100
18 | C[C@H](COCC(C)(C)O)[C@H]1CC[C@H]2[C@@H](OC(=O)c3ccc([N+](=O)[O-])cc3)CCC[C@]12C [Compound 4b] | >100
19 | COc1ccc(C(=O)O[C@H]2CCC[C@]3(C)[C@@H]([C@H](C)COCC(C)(C)O)CC[C@@H]23)cc1 [Compound 4c] | >100

System: Hh signaling pathway (Gli1 mRNA) in ASZ001 cells
Test: Gli1 mRNA down-regulation (qPCR) in ASZ001 cells
Type: cell-based
Conditions: Mus musculus; ASZ001 cells; mean ± SEM; read-out: Gli1 IC50
Protocol: Mouse embryonic fibroblast cell line (C3H10T1/2, wild-type, VDR^−/−, SuFu^−/−), mouse keratinocyte cell line (ASZ001), and human embryonic kidney cell line (HEK293T) were purchased from China Center for Type Culture Collection (CCTCC; Wuhan, Hubei, China) and cultured under standard protocols [16]. […] The loss of Ptch in ASZ001 cells prevents Smo inhibition, so down-regulating Gli1 reflects direct Smo inhibition by the compound.
(§4) RNA isolation in C3H10T1/2 cells was performed in 24-well plates (50,000 cells plated; TRIZOL Reagent); in ASZ001, cells were done in 35 mm dishes (300,000 cells plated; TRIZOL Reagent). cDNA synthesis was performed utilizing the SweScript All-in-One RT SuperMix Kit (Servicebio, Wuhan, China) per the manufacturer’s instructions on a BioRad S1000 Thermal Cycler (Hercules, CA, USA). qPCR (Hh signaling pathway and VDR) analysis of target genes was performed on Step OnePlus (ABI) using the Taqman Gene Expression Assays [18, 29]: mouse ActB (Mm00607939_s1), mouse GLI1 (Mm00494645_ml), mouse PTCH1(Mm00436026_m1), and mouse CYP24A1 (Mm00487244_ml). Relative gene expression levels were computed via the ΔΔCt method. ActinB mRNA expression levels of all samples were normalized to DMSO control ActinB mRNA levels (vehicle; set at 1.00). […] The mRNA expression levels from drug-treated samples were compared to OHCs levels (Gli1, PTCH) and DMSO control (Cyp24A1).

Row | Structure (SMILES) | IC50 [µM]
20 | CC(C)COC[C@@H](C)[C@H]1CC[C@H]2[C@@H](OC(=O)c3cccc(O)c3)CCC[C@]12C [Compound 3i] | 5.2 ± 0.3
21 | CC(C)COC[C@@H](C)[C@H]1CC[C@H]2[C@@H](OC(=O)c3ccc(O)cc3)CCC[C@]12C [Compound 3k] | 6.2 ± 1.1

System: ASZ001 cells
Test: Anti-proliferation (MTS) in ASZ001 cells
Type: cell-based
Conditions: Mus musculus, 48 h incubation, mean ± SEM

Row | Structure (SMILES) | GI50 [µM]
22 | CC(C)COC[C@@H](C)[C@H]1CC[C@H]2[C@@H](OC(=O)c3cccc(O)c3)CCC[C@]12C [Compound 3i] | > 20
23 | CC(C)COC[C@@H](C)[C@H]1CC[C@H]2[C@@H](OC(=O)c3ccc(O)cc3)CCC[C@]12C [Compound 3k] | > 20

System: VDR signaling (Cyp24A1 mRNA) in ASZ001 cells
Test: Cyp24A1 mRNA expression (qPCR) in ASZ001 cells
Type: cell-based
Conditions: Mus musculus; ASZ001 cells; 5 μM, 24 h; DMSO set to 1.0; read-out: Cyp24A1 mRNA levels relative to DMSO
Protocol: as §4

Row | Structure (SMILES) | fold induction at 5 µM
24 | CC(C)COC[C@@H](C)[C@H]1CC[C@H]2[C@@H](OC(=O)c3cccc(O)c3)CCC[C@]12C [Compound 3i] | 2.3 ± 0.2
25 | CC(C)COC[C@@H](C)[C@H]1CC[C@H]2[C@@H](OC(=O)c3ccc(O)cc3)CCC[C@]12C [Compound 3k] | 5.8 ± 0.3

System: Hh signaling pathway (Ptch mRNA) in C3H10T1/2 cells
Test: Ptch mRNA down-regulation (qPCR) in C3H10T1/2 cells
Type: cell-based
Conditions: Mus musculus, C3H 10T1/2; C3H10T1/2 cells; mean ± SEM; read-out: Ptch IC50
Protocol: as §4

Row | Structure (SMILES) | IC50 [µM]
26 | CC(C)COC[C@@H](C)[C@H]1CC[C@H]2[C@@H](OC(=O)c3cccc(O)c3)CCC[C@]12C [Compound 3i] | 5.6 ± 0.6
27 | CC(C)COC[C@@H](C)[C@H]1CC[C@H]2[C@@H](OC(=O)c3ccc(O)cc3)CCC[C@]12C [Compound 3k] | 10.3 ± 1.1
